For data set [1], the target named is TFEB-3×FLAG (transcription factor EB, wild type, Flag-tagged) (UniProt P19484).
Data set [2] concerns TFEB. Briefly: TFEB nuclear translocation in HeLa/TFEB cells. Type of data set: cell-based, human. The following applies: confocal microscopy and subcellular fractionation. The protocol: Control (Coriell Institute, USA) and JNCL fibroblasts (Gaslini Institute, Italy) were grown in DMEM (1:1, HyClone) supplemented with 10% heat-inactivated fetal bovine serum (FBS, Atlanta Biologicals), 2 mM L-glutamine, 100 U/ml penicillin and […] streptomycin (Invitrogen). HeLa cells were incubated for 2 h with LY294002 ([…], Cell Signaling), Torin 1 (300 nM, Cayman Chemical) or for 24 h with trehalose (100 mM, Sigma), rapamycin (300 nM, Sigma), MK2206 (1 μM, Selleckchem), U0126 ([…], Tocris) and dialyzed serum (GE Healthcare Life Sciences) for 30 min. For immunofluorescence assay, cells were grown on coverslips in 24-well plates. After the treatment, cells were washed with PBS and fixed with methanol for 10 min. Cells were then blocked with blocking reagent (0.1% saponin, 10% bovine serum in PBS) for 1 h and incubated with appropriate primary antibody(s) (1:100) for 3 h at room temperature. After three washes with PBS, the cells were incubated with appropriate secondary antibodies (1:500) for 1 h at room temperature. Coverslips were then mounted with vectashield containing 4,6-diamidino-2-phenylindole (H-1200) for imaging via confocal microscopy. Cell pellets were resuspended in lysis buffer (10 mM Hepes pH 7.9, 10 mM KCl, 0.1 mM EDTA and 0.4% Nonidet P40) with inhibitors by pipetting and kept in ice for 30 min. After 1 min of spin at full speed, the supernatant was collected as cytosolic fraction. The pellet was washed twice with lysis buffer and resuspended with nuclear buffer (20 mM Hepes pH 7.9, 0.4M NaCl and 1 mM EDTA) containing phosphatases and proteases inhibitors. After 15 min of vigorous shaking on an Eppendorf shaker, the pellet was spun down at full speed for 10 min. The supernatant was used as the nuclear fraction.

Data set [3] deals with Batten mice (Cln3 KO mice). Briefly: Macrophage infiltration (% area of CD68). In kind it is in vivo, mouse. The protocol: (§1) Batten mice (Cln3 KO mice) were administered trehalose, a low dose of miglustat, a high dose of miglustat, or a combination of trehalose and miglustat. Two controls were used in these experiments: (1) untreated Batten mice, and (2) untreated wild type mice. Neuronal cell death (measured by the density (no. of cells/area) of CAS-3 positive cells), neuroinflammation (measured by the number of GFAP-positive astrocyte cells in the neuronal system), and macrophage infiltration into the nervous system (measured by the % area of CD68) were measured.

Data set [4] deals with Batten mice (Cln3 KO mice). Briefly: Neuronal cell death (density of CAS-3 positive cells). In kind it is in vivo, mouse. As to the method:
as §1

Data set [5] concerns Batten mice (Cln3 KO mice). In words: Astrogliosis (GFAP-positive cells). Type of data set: in vivo, mouse. The protocol: as §1
Data set [6] deals with TFEB. Briefly: TFEB nuclear translocation in cells expressing constitutively active Akt (Akt-DD). In kind it is cell-based, human. Particulars: 24 h. As to the method: FIG. 16. Trehalose controls Akt regulation of TFEB in a GSK3β-independent manner. (a) HeLa cells were treated with trehalose for 24 h or left untreated. Immunoblot analyses were used to evaluate levels of GSK33 and its phosphorylation status. GAPDH was used as a loading control. (b) HeLa cells were cotransfected with TFEB-3×Flag and constitutively active GSK3β (CA-GSK3β), treated with trehalose or MK2206 for 24 h, and examined by immunofluorescence labeling for Flag (red) and GSK3β (green). Scale bar is 20 […]. (c) HeLa cells were cotransfected with TFEB-3×Flag and constitutively active Akt (Akt-DD), treated with the GSK3β inhibitor CHIR99021 for 24 h, and examined by immunofluorescence labeling for Flag (red) and Akt (green). Scale bar is 20 μm.

[7] abbreviates: all miglustat-treated Batten mice.
The mark [8] stands for this setting: all miglustat-treated mice, P<0.05.

Sequence of TFEB-3×FLAG (transcription factor EB, wild type, Flag-tagged) (P19484 whole entry): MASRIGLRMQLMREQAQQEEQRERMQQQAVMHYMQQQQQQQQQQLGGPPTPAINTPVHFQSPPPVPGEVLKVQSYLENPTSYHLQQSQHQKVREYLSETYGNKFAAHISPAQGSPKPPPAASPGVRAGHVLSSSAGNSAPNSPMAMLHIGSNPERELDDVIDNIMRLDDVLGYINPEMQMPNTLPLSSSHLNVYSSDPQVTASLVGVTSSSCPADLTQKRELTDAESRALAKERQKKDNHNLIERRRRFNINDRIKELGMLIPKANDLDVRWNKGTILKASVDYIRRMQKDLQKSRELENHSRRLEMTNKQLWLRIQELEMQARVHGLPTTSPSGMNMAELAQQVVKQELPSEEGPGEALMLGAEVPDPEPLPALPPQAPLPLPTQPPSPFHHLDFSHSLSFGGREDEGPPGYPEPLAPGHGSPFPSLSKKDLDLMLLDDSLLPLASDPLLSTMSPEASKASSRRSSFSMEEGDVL

For the compound “purified, active AKT1 enzyme (SignalChem)”, the “in vitro Akt kinase assay ([32P]ATP, autoradiography)” value in data set [1] is on record as “Akt phosphorylates purified TFEB”.

As for `CCC(=O)N1CCN(c2ccc(-n3c(=O)ccc4cnc5ccc(-c6cnc7ccccc7c6)cc5c43)cc2C(F)(F)F)CC1` [Torin 1], the “TFEB nuclear translocation on kinase inhibitors” value in the data set with TFEB [2] is listed as “TFEB nuclear translocation”.

As to `CCCCN1C[C@H](O)[C@@H](O)[C@H](O)[C@H]1CO` [miglustat], the “macrophage infiltration vs wild-type mice” value in data set [3] (setting [7]) was “indistinguishable from the wild-type mice”. In addition, the “macrophage infiltration vs untreated Batten mice” value in data set [3] (setting [8]) was “less macrophage infiltration”. Moreover, the “neuronal cell death vs wild-type mice” value in data set [4] (setting [7]) was “indistinguishable from the wild-type mice”. Further, the “neuronal cell death vs untreated Batten mice” value in data set [4] (low dose, high dose, or combined with trehalose, P<0.05) is listed as “less neuronal cell death”. Moreover, the “astrogliosis vs wild-type mice” value in data set [5] (setting [7]) is given as “indistinguishable from the wild-type mice”. The “GFAP-positive cells vs untreated Batten mice” value in data set [5] (setting [8]) is given as “less GFAP-positive cells”.

For the compound `Cc1c[nH]c(-c2cnc(NCCNc3ccc(C#N)cn3)nc2-c2ccc(Cl)cc2Cl)n1` [CHIR-99021], the TFEB nuclear translocation entry in the data set on TFEB [6] is reported as “promoted nuclear translocation of TFEB”.

For the origin of these results see patent US10512656B2, “Compositions and methods for the treatment of lysosomal storage disorders and disorders characterized by lysosomal dysfunction” (Baylor College of Medicine, priority 2016, dated 2019).
